In patent US12065404B2, “C4-carboxylic acid-substituted tryptamine derivatives and methods of using” (priority 2022, dated 2024):
Where “and” joins values, the source holds several entries; their conditions need not be identical. Equal entries are not always repeated.

Experiments:
[1] = Mouse pharmacokinetic (PK) study, parent compound and psilocin metabolite in plasma; type: in vivo, C57Bl/6 mice; conditions: for bioavailability: male, C57Bl/6, mouse, plasma, po
Description: Briefly, the procedure was as follows. […] 19, 2022.

GABAA = GABAA (Homo sapiens, UniProt P14867+P18507+P47870); type: cell-based; conditions: ion channel
[2] = administered compound itself in plasma, 1 mg/kg i.v., individual animals, 1 mg/kg
[3] = administered compound itself in plasma, 1 mg/kg i.v., mean ± SD
[4] = administered compound itself in plasma, 1 mg/kg oral, individual animals, 1 mg/kg
[5] = administered compound itself in plasma, 1 mg/kg oral, mean ± SD, 1 mg/kg
[6] = administered compound itself in plasma, 3 mg/kg oral, individual animals, 3 mg/kg
[7] = administered compound itself in plasma, 3 mg/kg oral, mean ± SD
[8] = administered compound itself in plasma, 3 mg/kg oral, mean ± SD, 3 mg/kg
[9] = administered compound itself in plasma, 10 mg/kg oral, individual animals, 10 mg/kg
[10] = administered compound itself in plasma, 10 mg/kg oral, mean ± SD

Chain of GABAA (P14867 28-456): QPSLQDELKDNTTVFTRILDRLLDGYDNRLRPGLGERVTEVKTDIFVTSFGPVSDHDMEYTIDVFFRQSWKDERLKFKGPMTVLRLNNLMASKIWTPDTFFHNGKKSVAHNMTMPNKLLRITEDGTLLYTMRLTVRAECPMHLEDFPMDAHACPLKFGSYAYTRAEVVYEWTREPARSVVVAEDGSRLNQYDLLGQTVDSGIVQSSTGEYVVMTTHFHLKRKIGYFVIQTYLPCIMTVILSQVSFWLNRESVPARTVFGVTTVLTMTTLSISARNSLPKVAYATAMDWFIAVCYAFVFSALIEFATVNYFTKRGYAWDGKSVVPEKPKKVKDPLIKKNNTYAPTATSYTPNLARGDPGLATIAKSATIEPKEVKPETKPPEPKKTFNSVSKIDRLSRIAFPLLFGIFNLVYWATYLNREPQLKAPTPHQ
Chain of GABAA (P47870 26-512): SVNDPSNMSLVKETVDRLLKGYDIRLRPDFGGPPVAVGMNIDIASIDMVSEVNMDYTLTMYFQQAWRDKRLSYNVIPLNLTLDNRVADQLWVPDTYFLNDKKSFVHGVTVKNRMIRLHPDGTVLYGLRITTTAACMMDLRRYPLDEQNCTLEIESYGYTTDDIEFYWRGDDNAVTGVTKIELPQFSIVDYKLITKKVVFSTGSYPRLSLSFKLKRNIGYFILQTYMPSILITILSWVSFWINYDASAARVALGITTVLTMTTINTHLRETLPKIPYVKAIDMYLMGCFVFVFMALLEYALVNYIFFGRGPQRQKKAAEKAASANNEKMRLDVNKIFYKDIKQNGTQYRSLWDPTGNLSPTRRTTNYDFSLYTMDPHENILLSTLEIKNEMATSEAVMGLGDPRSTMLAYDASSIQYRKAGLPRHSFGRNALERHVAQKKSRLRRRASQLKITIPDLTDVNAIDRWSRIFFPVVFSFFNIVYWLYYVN
Chain of GABAA (P18507 40-475): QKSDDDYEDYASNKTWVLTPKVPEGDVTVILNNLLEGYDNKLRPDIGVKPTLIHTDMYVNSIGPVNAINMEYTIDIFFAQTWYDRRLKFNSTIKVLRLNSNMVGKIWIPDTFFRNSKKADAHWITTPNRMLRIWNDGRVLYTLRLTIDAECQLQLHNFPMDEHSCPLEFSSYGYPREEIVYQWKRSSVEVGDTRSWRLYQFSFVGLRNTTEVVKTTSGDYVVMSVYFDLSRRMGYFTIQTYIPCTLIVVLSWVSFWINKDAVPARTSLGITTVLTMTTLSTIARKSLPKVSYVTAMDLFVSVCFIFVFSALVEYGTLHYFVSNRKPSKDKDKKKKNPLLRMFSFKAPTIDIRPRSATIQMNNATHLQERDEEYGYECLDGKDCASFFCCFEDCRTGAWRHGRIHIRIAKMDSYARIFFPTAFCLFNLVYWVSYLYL

CN(C)CCc1c[nH]c2cccc(OC(=O)c3ccc(Br)cc3)c12 [C(I)]
F(%), M37 considered as an outlier ([1]; 10 mg/kg oral, AUC0-tlast used for p.o. group, i.v. animal M37 considered an outlier, mean ± SD): 3.22 ± 0.731%
F(%) ([1]; 10 mg/kg oral, AUC0-tlast used for p.o. group, individual animals): 0.447% and 0.627%
AUC0-inf [1, 2]: 1014 ng·h/mL and 64.4 ng·h/mL and 51.9 ng·h/mL
AUC0-inf/Dose [1, 2]: 1014 kg·ng·h/mL/mg and 64.4 kg·ng·h/mL/mg and 51.9 kg·ng·h/mL/mg
AUC0-tlast [1, 2]: 1006 ng·h/mL and 63.7 ng·h/mL and 51.4 ng·h/mL
AUC0-tlast/Dose [1, 2]: 1006 kg·ng·h/mL/mg and 63.7 kg·ng·h/mL/mg and 51.4 kg·ng·h/mL/mg
Apparent t1/2 [1, 2]: 72.6 min and 38.6 min
C0 [1, 2]: 3792 ng/mL and 168 ng/mL and 132 ng/mL
CL [1, 2]: 16.4 mL/min/kg and 258.9 mL/min/kg and 321.08 mL/min/kg
MRT0-inf [1, 2]: 46.8 min and 39.4 min
Vss [1, 2]: 0.56 L/kg and 12.109 L/kg and 12.65 L/kg
AUC0-inf/Dose [1, 3]: 377 ± 552 kg·ng·h/mL/mg
AUC0-tlast/Dose [1, 3]: 374 ± 548 kg·ng·h/mL/mg
MRT0-inf [1, 3]: 40.1 ± 6.36 min
AUC0-tlast/Dose ([1]; administered compound itself in plasma, 1 mg/kg i.v., mean, n = 2 (apparently without possible outlier M37)): 57.6 kg·ng·h/mL/mg
AUC0-tlast [1, 4]: 2.09 ng·h/mL and 0.169 ng·h/mL and 1.75 ng·h/mL
AUC0-tlast/Dose [1, 4]: 2.09 kg·ng·h/mL/mg and 0.169 kg·ng·h/mL/mg and 1.75 kg·ng·h/mL/mg
Cmax [1, 4]: 0.816 ng/mL and 0.54 ng/mL and 1.28 ng/mL
Cmax/Dose [1, 4]: 0.816 kg·ng/mL/mg and 0.54 kg·ng/mL/mg and 1.28 kg·ng/mL/mg
AUC0-tlast/Dose [1, 5]: 1.34 ± 1.02 kg·ng·h/mL/mg and 1.34 kg·ng·h/mL/mg
Cmax/Dose [1, 5]: 0.877 ± 0.376 kg·ng/mL/mg and 0.877 kg·ng/mL/mg
AUC0-tlast [1, 6]: 5.47 ng·h/mL and 5.91 ng·h/mL
AUC0-tlast/Dose [1, 6]: 1.75 kg·ng·h/mL/mg and 1.82 kg·ng·h/mL/mg and 1.97 kg·ng·h/mL/mg
Cmax [1, 6]: 2.16 ng/mL and 2.34 ng/mL
Cmax/Dose [1, 6]: 0.650 kg·ng/mL/mg and 0.720 kg·ng/mL/mg and 0.780 kg·ng/mL/mg
tmax [1, 6]: 15 min
AUC0-tlast [1, 7]: 5.54 ± 0.330 ng·h/mL
Cmax [1, 7]: 2.15 ± 0.195 ng/mL
AUC0-tlast/Dose [1, 8]: 1.85 ± 0.110 kg·ng·h/mL/mg and 1.85 kg·ng·h/mL/mg
Cmax/Dose [1, 8]: 0.717 ± 0.0651 kg·ng/mL/mg and 0.717 kg·ng/mL/mg
AUC0-inf [1, 9]: 24.1 ng·h/mL
AUC0-tlast [1, 9]: 16.8 ng·h/mL and 23.6 ng·h/mL
AUC0-tlast/Dose [1, 9]: 1.58 kg·ng·h/mL/mg and 1.68 kg·ng·h/mL/mg and 2.36 kg·ng·h/mL/mg
Apparent t1/2 [1, 9]: 70.2 min
Cmax [1, 9]: 7.10 ng/mL and 10.9 ng/mL
Cmax/Dose [1, 9]: 0.720 kg·ng/mL/mg and 0.710 kg·ng/mL/mg and 1.09 kg·ng/mL/mg
MRT0-inf [1, 9]: 144 min
tmax [1, 9]: 30 min
AUC0-tlast/Dose [1, 10]: 1.87 ± 0.425 kg·ng·h/mL/mg
Cmax/Dose [1, 10]: 0.840 ± 0.217 kg·ng/mL/mg
bioavailability ([1]; 1 mg/kg, 1 mg/kg oral, AUC0-tlast used for p.o. group, value might be under-estimated, mean ± SD): 0.355 ± 0.272%
bioavailability ([1]; 3 mg/kg, 3 mg/kg oral, AUC0-tlast used for p.o. group, value might be under-estimated, individual animals): 0.466%
bioavailability ([1]; 3 mg/kg, 3 mg/kg oral, AUC0-tlast used for p.o. group, value might be under-estimated, mean ± SD): 0.491 ± 0.0292%
bioavailability ([1]; 10 mg/kg, 10 mg/kg oral, AUC0-tlast used for p.o. group, individual animals): 0.419%
bioavailability ([1]; 10 mg/kg, 10 mg/kg oral, AUC0-tlast used for p.o. group, mean ± SD): 0.498 ± 0.113%
IC50 (GABAA; blocker (BL)): > 100 µM
EC50 (GABAA; opener (OP)): > 100 µM
